Key:
Assay in all cases: cells
Design in all cases: species or system GBM PDCLs
Settings in all cases: 72 h, read-out: Erlotinib (IC50 µM)
BT333 = system: BT333
BT112 = system: BT112
BT179 = system: BT179

IC50 (BT333): > 20 µM
IC50 (BT112): 18.5 µM
IC50 (BT179): 11.7 µM
SMILES: C#Cc1cccc(Nc2ncnc3cc(OCCOC)c(OCCOC)cc23)c1 [erlotinib]
